Data as given in patent publication US4207326A, “Antimicrobial quaternary pyrazole derivatives” (Cilag-Chemie A.G., priority 1979, dated 1980).
Where two headings read alike, the source gives them in different places.

Columns and labels:
P. mirabilis = experiment: Antibacterial activity: Minimum Inhibitory Concentration; type: cell-based, Proteus mirabilis NCTC 8559; conditions: for MIC: Proteus mirabilis, read-out: Minimum Inhibitory Concentration
Experimental: (§1) The antimicrobial activity was determined by inoculation of the test microorganism into suitable growth media containing solutions of the compounds at concentrations of 100, 50, 10, 5, 1.0, 0.5 and 0.1 μg/ml. The reference antibiotics used were Gentamicin for the antibacterial tests and Amphotericin B for the antimycotic and antifungal tests. After incubation the antimicrobial activity was recorded as the Minimal Inhibitory Concentration (M.I.C.), i.e., the lowest concentration preventing macroscopically visible growth, for each test compound against each organism.
(§2) An initial solution of each formula (I) compound to be tested in sterile distilled water was prepared at a concentration of 1000 μg/ml. With appropriate dilutions using sterile distilled water, additional solutions were prepared at concentrations of 500, 100, 50, 10, 5 and 1 μg/ml.
(§3) They were cultured and maintained on Tryptone Soy Agar (Oxoid CM 131), with the addition of 10% horse blood for the S. pyogenes.
(§4) To prepare the organisms as inocula for the test, slopes of this medium were streaked with the organisms and incubated at 37° C. for 24 hours. 4.5 Ml volumes of Brian-Heart Infusion Broth (Oxoid CM 225) were then inoculated with a platinum loop from the agar slope cultures and incubated for 24 hours at 37° C. The final inocula were then prepared by adding 0.1 ml aliquots of the Brain-Heart Infusion Broth cultures to 100 ml volumes of sterile physiological saline.
(§5) (a) For the test on each of the bacterial strains and each of the test and reference compounds, a series of 8 tubes containing 4.5 ml volumes of Brain-Heart Infusion Broth (Oxoid CM 225) were prepared. To 7 of these were added 0.5 ml volumes of the final solutions of the test compouns, giving final concentrations in the broths of 100, 50, 10, 5, 1.0, 0.5 and 0.1 μg/ml. To the eighth tube in each series was added 0.5 ml of the solvent used and diluted as for the preparation of the 1000 μg/ml solution of the compound. This tube was used as the growth control. The tubes were inoculated with 0.02 ml aliquots of the inocula prepared in accordance with "(a) Bacteria" above, and incubated at 37° C. for 24 hours. The tubes were then examined for evidence of bacterial growth as shown by turbidity of the medium and the lowest concentration of the test compound which prevented bacterial growth was recorded as the Minimal Inhibitory Concentration. This test procedure was carried out on two separate days.

P. aeruginosa = experiment: as above; type: cell-based, Pseudomonas aeruginosa ATCC 9027; conditions: for MIC: Pseudomonas aeruginosa, read-out: Minimum Inhibitory Concentration
Experimental: as §1, §2, §3, §4, §5

C. tropicalis = experiment: Antimycotic activity: Minimum Inhibitory Concentration; type: cell-based, Candida tropicalis NCPF 3111; conditions: pH 5.5, 37° C., 72 hours; for Minimum Inhibitory Concentrations: C. tropicalis; for MIC: Candida tropicalis
Experimental: as §1, §2
The two species, C. albicans and C. tropicalis, were maintained on Sabouraud-Dextrose Agar (Oxoid CM41) and cultures for the preparation of the inoculum were incubated on this agar at 37° C. for 48 hours. 4.5 Ml volumes of citric acid-phosphate buffer pH 5.5 plus Yeast-Nitrogen Base (Difco 0392-15) were then inoculated from the agar cultures and incubated at 37° C. for 48 hours. 0.1 Ml aliquots of these cultures were then added to 100 ml volumes of sterile physiological saline to give the final inocula.
(b) For the tests on each of the C. albicans, C. tropicalis and C. neoformans strains and each of the test and reference compounds, a series of 8 tubes containing 4.5 ml volumes of citric acid-phosphate buffer pH 5.5 plus Yeast-Nitrogen Base (Difco 0392-15) were prepared. To 7 of these were added 0.5 ml volumes of the final solutions of the test compounds, giving final concentrations in the broths of 100, 50, 10, 5, 1.0, 0.5 and 0.1 μg/ml. To the eighth tube in each series was added 0.5 ml of the solvent used and diluted as for the preparation of the 1000 μg/ml solution of the compound. This tube was used as the growth control. The tubes were then inoculated with 0.1 ml aliquots of the inocula prepared as in "(b) Fungi" above. The tubes inoculated with the C. albicans and C. tropicalis were inoculated at 37° C. for 72 hours and the tubes inoculated with the C. neoformans straim were incubated at 30° C. for 72 hours. […] The tubes were then examined for evidence of growth as shown by turbidity of the medium and the lowest concentration of the test compound which prevented fungal growth was recorded as the Minimal Inhibitory Concentration. This test procedure was carried out on two separate days.

A. corymbifera = experiment: Antifungal activity: Minimum Inhibitory Concentration; type: cell-based, Absidia corymbifera NCPF 2001; conditions: for MIC: Lichtheimia corymbifera, read-out: Minimum Inhibitory Concentration
Experimental: as §1, §2
A. corymbifera NCPF 2001
(§6) The A. corymbifera, A. fumigatus, S. schenkii, T. rubrum, T. mentagrophytes, M. canis and P. verrucosa strains were all maintained on Sabouraud-Dextrose Agar (Oxoid CM 41) by incubating for 14 days at 27° C. To prepare the inocula 30 ml volumes of Sabouraud-Liquid medium (Oxoid CM 147) were inoculated from the agar cultures and incubated at 27° C. until heavy uniform growth resulted. The mycelial growth was then broken up by shaking with glass beads.
(§7) 1 Ml aliquots were removed from each of the cultures for the purpose of making viable counts and the cultures were then held at 4° C. The viable counts were made by preparing serial ten-fold dilutions of the cultures in sterile physiological saline and spreading on plates of Sabouraud-Dextrose Agar (Oxoid CM 41) which were then incubated at 27° C. for 14 days. When the viable counts had confirmed that each of the inocula contained approximately 10^6 colony forming units (C.F.U.) per ml the cultures were withdrawn from the refrigerator and used as the inocula for the tests.
(§8) (c) For the tests on each of the remaining seven strains and each of the test and reference compounds, a series of 8 tubes containing 4.5 ml volumes of Sabouraud-Liquid Medium (Oxoid CM 147) were prepared. To 7 of these were added 0.5 ml volumes of the final solutions of the test compounds, giving final concentrations in the broths of 100, 50, 10, 5, 1.0, 0.5 and 0.1 μg/ml. To the eighth tube in each series was added 0.5 ml of the solvent used and diluted as for the preparation of the 500 μg/ml solution of the compound. This tube was used as a growth control. The tubes were then inoculated with 0.1 ml aliquots of the inocula prepared as in "(b) Fungi" above. The tubes were then incubated at 27° C. with continuous shaking for a period of one week. The tubes were then examined for evidence of growth as shown by the presence of mycelial growth in the medium and the lowest concentration of the test compound which prevented fungal growth was recorded as the Minimal Inhibitory Concentration. This test procedure was carried out on two separate days.

T. rubrum = experiment: as above; type: cell-based, Trichophyton rubrum NCPF 197; conditions: T. rubrum, 27° C., one week; for MIC: Trichophyton rubrum, read-out: Minimum Inhibitory Concentration
Experimental: as §1, §2, §6, §7, §8

M. canis = experiment: as above; type: cell-based, Microsporum canis NCPF 351; conditions: M. canis, 27° C., one week; for MIC: Microsporum canis, read-out: Minimum Inhibitory Concentration
Experimental: as §1, §2, §6, §7, §8

[1] = P. mirabilis, Day 1, 37° C., 24 hours
[2] = P. mirabilis, Day 2, 37° C., 24 hours
[3] = P. aeruginosa, Day 1, 37° C., 24 hours
[4] = P. aeruginosa, Day 2, 37° C., 24 hours
[5] = A. corymbifera, Day 1, 27° C., one week
[6] = A. corymbifera, Day 2, 27° C., one week
[7] = pH 5.5, C. tropicalis, Day 1, read-out: Minimum Inhibitory Concentrations
[8] = pH 5.5, C. tropicalis, Day 2, read-out: Minimum Inhibitory Concentrations

Compound | Minimum Inhibitory Concentration (A. corymbifera; [6]) | Minimum Inhibitory Concentration (T. rubrum; Day 2) | Minimum Inhibitory Concentration (M. canis; Day 2) | MIC (P. mirabilis; [1]) | MIC (P. mirabilis; [2]) | MIC (P. aeruginosa; [3]) | MIC (P. aeruginosa; [4]) | MIC (C. tropicalis; [7]) | MIC (C. tropicalis; [8]) | MIC (A. corymbifera; [5]) | MIC (A. corymbifera; [6]) | MIC (T. rubrum; Day 1) | MIC (T. rubrum; Day 2) | MIC (M. canis; Day 1) | MIC (M. canis; Day 2) | further results
2,3(5)-dimethyl-1-hexadecyl-pyrazolium methosulfate [Example 9] | 10 µg/mL | 5 µg/mL | 5 µg/mL | – | – | – | – | – | – | – | – | – | – | – | – | Minimum Inhibitory Concentration (P. mirabilis; [1]): 10 µg/mL; Minimum Inhibitory Concentration (P. mirabilis; [2]): 10 µg/mL; Minimum Inhibitory Concentration (P. aeruginosa; [3]): 10 µg/mL; Minimum Inhibitory Concentration (P. aeruginosa; [4]): 10 µg/mL; Minimum Inhibitory Concentrations (C. tropicalis; Day 1): 5 µg/mL; Minimum Inhibitory Concentrations (C. tropicalis; Day 2): 1 µg/mL; Minimum Inhibitory Concentration (A. corymbifera; [5]): 10 µg/mL; Minimum Inhibitory Concentration (T. rubrum; Day 1): 5 µg/mL; Minimum Inhibitory Concentration (M. canis; Day 1): 5 µg/mL
CCCCCCCCCCCCCCCCn1c(C)cc(C)[n+]1C [Example 2, 1-hexadecyl-2,3,5-trimethyl-pyrazolium methosulfate] | – | – | – | 10 µg/mL | 10 µg/mL | 10 µg/mL | 5 µg/mL | 1 µg/mL | 0.5 µg/mL | 50 µg/mL | 50 µg/mL | 5 µg/mL | 5 µg/mL | 10 µg/mL | 5 µg/mL | –
C=CCn1c(C)cc(C)[n+]1CCCCCCCCCCCCCCCC.[Br-] [Example 7, 2-allyl-3,5-dimethyl-1-hexadecyl-pyrazoliumbromide] | – | – | – | 10 µg/mL | 50 µg/mL | 50 µg/mL | 10 µg/mL | 0.5 µg/mL | 0.5 µg/mL | 5 µg/mL | 5 µg/mL | 1 µg/mL | 1 µg/mL | 5 µg/mL | 10 µg/mL | –
2,3(5)-dimethyl-1-dodecyl-pyrazolium methosulfate [Example 8-A] | 100 µg/mL | 10 µg/mL | 1 µg/mL | – | – | – | – | – | – | – | – | – | – | – | – | Minimum Inhibitory Concentration (P. mirabilis; [1]): 100 µg/mL; Minimum Inhibitory Concentration (P. mirabilis; [2]): 100 µg/mL; Minimum Inhibitory Concentration (P. aeruginosa; [3]): 50 µg/mL; Minimum Inhibitory Concentration (P. aeruginosa; [4]): 50 µg/mL; Minimum Inhibitory Concentrations (C. tropicalis; Day 1): 5 µg/mL; Minimum Inhibitory Concentrations (C. tropicalis; Day 2): 5 µg/mL; Minimum Inhibitory Concentration (A. corymbifera; [5]): 100 µg/mL; Minimum Inhibitory Concentration (T. rubrum; Day 1): 5 µg/mL; Minimum Inhibitory Concentration (M. canis; Day 1): 5 µg/mL
CCCCCCCCCCCCn1ccc[n+]1C [Example 3-E, 1-dodecyl-2-methy-pyrazolium methosulfate] | – | – | – | 100 µg/mL | 100 µg/mL | 50 µg/mL | 50 µg/mL | 5 µg/mL | 1 µg/mL | 100 µg/mL | 100 µg/mL | 5 µg/mL | 5 µg/mL | 10 µg/mL | 10 µg/mL | –
CCCCCCCCCCCCCCCC[n+]1c(C)cc(C)n1C.Cc1ccc(S(=O)(=O)[O-])cc1 [Example 6-C, 1-hexadecyl-2,3,5-trimethylpyrazolium p-toluene sulfonate] | 10 µg/mL | 5 µg/mL | 5 µg/mL | – | – | – | – | – | – | – | – | – | – | – | – | MIC (P. mirabilis): 50 µg/mL; MIC (P. aeruginosa; 24 h): 5 µg/mL; MIC (P. aeruginosa): 10 µg/mL; MIC (C. tropicalis; pH 5.5, read-out: Minimum Inhibitory Concentrations, C. tropicalis, Day 1): 5 µg/mL; MIC (A. corymbifera): 10 µg/mL
CCCCCCCCCCCC[n+]1c(C)cc(C)n1Cc1ccc(Cl)cc1.[Br-] [Example 6-E, 2-(p-chlorobenzyl)-3,5-dimethyl-1-dodecyl-pyrazolium bromide] | – | – | – | 50 µg/mL | 50 µg/mL | 5 µg/mL | 5 µg/mL | 5 µg/mL | 1 µg/mL | 10 µg/mL | 50 µg/mL | 5 µg/mL | 5 µg/mL | 1 µg/mL | 5 µg/mL | –
CCCCCCCCCCCCCCn1ccc[n+]1C [Example 3-G, 2-methyl-1-tetradecyl-pyrazolium methosulfate] | – | – | – | 50 µg/mL | 50 µg/mL | 10 µg/mL | 10 µg/mL | 0.5 µg/mL | 0.5 µg/mL | 10 µg/mL | 10 µg/mL | 1 µg/mL | 5 µg/mL | 10 µg/mL | 5 µg/mL | –
CCCCCCCCCCCCCC[n+]1c(C)cc(C)n1Cc1ccc([N+](=O)[O-])cc1.[Br-] [Example 6-D, 3,5-dimethyl-2(4-nitrobenzyl)-1-tetradecyl-pyrazolium bromide] | – | – | – | 50 µg/mL | 50 µg/mL | 100 µg/mL | 50 µg/mL | 5 µg/mL | 5 µg/mL | 50 µg/mL | 50 µg/mL | 10 µg/mL | 10 µg/mL | 10 µg/mL | 5 µg/mL | –
